For this data set the following is noted: 40° C., 15 g, UV8 membrane, 1.6 mm orifice. The source says:
All prototype lure devices (i.e., the attractant receptacle and permeable membrane with enclosed volatile insect attractant) were constructed using polypropylene/calcium carbonate film (UV8) for the permeable membrane and Scotchpak™ (3M) polyester laminate film for the impermeable barrier material. Each lure device measured approximately 11.5 cm×5.5 cm with a 1.6 mm ( 1/16 in) diameter spherical punch in the impermeable layer exposing the membrane and an ˜8 mm ( 5/16 in) diameter heat seal around the circumference of the punch (referred to as a ring seal). […] Prior to being deployed the lures were weighed on an analytical balance (Sartorius, Universal; resolution of 0.01 g). Prototype lures were attached to a cord that ran the length of ventilated laboratory fume hood, with 5-8 cm (2-3 in) separating each lure in an open, ventilated room at the indicated temperature (18-20° C. or 39-41° C.). Every 2-3 days the lures were removed from the cord and weighed on the same scale. Lure weight was recorded and the weight loss (g/day) was calculated. In addition to prototype lures, two controls were included in the study consisting of a current Suterra lure product (WHF lure) and a competitor product (Comp. Prod. 1).

Like-named read-outs stand apart in the source and are kept apart here.

For `N.NC(=O)O` [CM-NR, Ammonium carbamate], the “Attractant Release Rate (5-day average per time point)” value by setting is: (day 5) 338.4 mg/day; (day 10) 346.8 mg/day; (day 15) 370.0 mg/day; (day 20) 413.7 mg/day; (day 25) 440.0 mg/day; (day 30) 429.7 mg/day. Also, the “Attractant Release Rate (5-day average per time point)” value is, setting by setting: (day 35) 408.5 mg/day; (day 40) 193.2 mg/day; (day 45) 0.0 mg/day; (day 49) 0.0 mg/day; (day 55) 0.0 mg/day.

Values taken from US12178210B2, “Insect attractant and killing system” (priority 2020, dated 2024).
